These are literature values, as cited in US20070197495A1, “ANTI-PARASITIC COMPOUNDS AND METHODS OF THEIR USE” (THE REGENTS OF THE UNIVERSITY OF CALIFORNIA, priority 2004, published 2007).

The subject of series [1] is T. cruzi. To be noted: cruzain inhibitor added to cultures of mammalian cells exposed to trypomastigotes or already infected with amastigotes.
Series [2] concerns T. cruzi. Conditions: mouse model study (Engel et al. 1998).

For “benzyloxy-carbonyl-L-phenylalanyl L-alanine fluoromethyl ketone [Z-Phe-Ala-FMK]”, the “replication and differentiation of the parasite” value in series [1] is “blocks replication and differentiation of the parasite”.
For the compound `CN1CCN(C(=O)NC(Cc2ccccc2)C(=O)NC(C=CS(=O)(=O)c2ccccc2)CCc2ccccc2)CC1` (centres unmarked) [N-methyl piperazine-Phe-homoPhe-vinyl sulfone phenyl], in series [2], the “outcome of treatment of T. cruzi-infected mice” value is reported as “cure”.
